These results are taken from PMC6273578, “Design, Synthesis and Biological Evaluation of Benzohydrazide Derivatives Containing Dihydropyrazoles as Potential EGFR Kinase Inhibitors” (Molecules, 2016).

Series [1] concerns A549 cells. Nature of the series: MTT antiproliferative assay, A549. The format is cell-based, human. Conditions: read-out: In vitro antiproliferative activity IC50, A549. Here is the method:
(§1) IC50 values of the test compounds against A549, MCF-7, Hela and HepG2 cells were obtained from State Key Laboratory of Pharmaceutical Biotechnology, Nanjing University, and were determined by a standard (MTT)-based colorimetric assay (Beyotime Inst. Biotech., Nanjing, China). Tumor cell lines were grown to mid-log phase and then diluted to […] making sure they were seeded in 96-well plates (Philas, Nanjing, China) at a density of 5 × 10^3–1 × 10^4 cells per well. The outer wells containing 1 × PBS solution of the plate are not used for the assay to avoid the possibility of edge effects. The plate was incubated at 37 °C in a 5% CO2 incubator in DMEM containing 10% fetal bovine serum (FBS, Gibco, Waltham, MA, USA) for 24 h. Then, we added a 100-μL series concentration of drug-containing medium into the wells to maintain the final concentration of drug as 100, 10, 1 and 0.1 μmol/L. After 12 h, cell survival was determined by the addition of a MTT (3-(4,5-dimethylthiazol-2-yl)-2,5-diphenyl trtrazolium bromide) solution (10 μL of 5 mg/mL MTT in 1 × PBS). We waited for 4 h proliferation, discarded the medium and quickly added 150 μL DMSO per well, shaking the plates well for 10 min to ensure complete dissolution. Optical absorbance was measured at 570 nm on a microplate reader (Bio-Rad, Hercules, CA, USA). Survival ratios are expressed in percentages with respect to untreated cells. The experiments were replicated at least three times to verify the methodology reproducibility when using the above-mentioned conditions.
(Formazan colour is commonly taken as a measure of viable cells.)

In series [2] the test system is HeLa cells. Description: MTT antiproliferative assay, HeLa. The format is cell-based, human. As to conditions: read-out: In vitro antiproliferative activity IC50, HeLa. Here is the method: as §1
For series [3], the target named is epidermal growth factor receptor (EGFR) (Homo sapiens, UniProt P00533). Nature of the series: EGFR kinase inhibition, solid-phase ELISA assay. On the technique in general: In an ELISA, binding on a coated surface is turned into a signal by an enzyme label.
Procedure: All these newly synthesized compounds were evaluated for their inhibitory activities against EGFR kinases using a solid-phase ELISA assay.
EGFR tyrosine kinase activity was determined by an enzyme linked-immunosorbent assay (ELISA) in 96-well plates precoated in a 10 mL reaction volume including 4 mL diluted test compounds, 4 mL substrate and 2 mL ATP. […] The plates were then aspirated and washed twice with 200 mL 0.9% (w/v) NaCl, and incorporation of Pi was determined with an LX300 Epson Diagnostic microplate reader. […] The experiments were replicated at least three times to verify the methodology reproducibility when using the above-mentioned conditions.
For series [4], the system named is HepG2 cells. Description: MTT antiproliferative assay, HepG2. As to conditions: read-out: In vitro antiproliferative activity IC50, HepG2. The series is classed as cell-based, human. The method, then: as §1
The subject of series [5] is MCF-7 cells. Nature of the series: MTT antiproliferative assay, MCF-7. The series is classed as cell-based, human. Here is the method: as §1
Series [6] concerns 293T human kidney epithelial cells. Description: Cytotoxicity test (MTT) on 293T cells. As to conditions: read-out: median cytotoxic concentration CC50; 293T cells, MTT assay, 24 h. Here is the method: (§2) The cytotoxic activity in vitro was measured by the colorimetric MTT assay. […] For the cytotoxicity assay, 20 μL of MTT (5 mg/mL) was added per well 4 h before the end of the incubation. After removing the supernatant, 200 μL DMSO was added to dissolve the formazan crystals. The absorbance at λ 570 nm was read on an LX300 Epson Diagnostic microplate reader, untreated cells were used as negative controls.

The nature of series [7]: Cytotoxicity test (MTT) on 293T cells. As to conditions: human, 293T human kidney epithelial cells. The method, then:
as §2

[8] abbreviates: read-out: Inhibition activity IC50 against EGFR, solid-phase ELISA assay.
Setting [9] is: read-out: In vitro antiproliferative activity IC50, MCF-7.
Setting [10] is: Homo sapiens, MCF7, read-out: In vitro antiproliferative activity IC50, MCF-7.

Like-named read-outs stand apart in the source and are kept apart here.

One may read the IC50 as the concentration that inhibits the measured activity by half. By melting point is commonly meant the temperature of the solid-liquid transition.

epidermal growth factor receptor (EGFR), sequence (P00533 25-1210): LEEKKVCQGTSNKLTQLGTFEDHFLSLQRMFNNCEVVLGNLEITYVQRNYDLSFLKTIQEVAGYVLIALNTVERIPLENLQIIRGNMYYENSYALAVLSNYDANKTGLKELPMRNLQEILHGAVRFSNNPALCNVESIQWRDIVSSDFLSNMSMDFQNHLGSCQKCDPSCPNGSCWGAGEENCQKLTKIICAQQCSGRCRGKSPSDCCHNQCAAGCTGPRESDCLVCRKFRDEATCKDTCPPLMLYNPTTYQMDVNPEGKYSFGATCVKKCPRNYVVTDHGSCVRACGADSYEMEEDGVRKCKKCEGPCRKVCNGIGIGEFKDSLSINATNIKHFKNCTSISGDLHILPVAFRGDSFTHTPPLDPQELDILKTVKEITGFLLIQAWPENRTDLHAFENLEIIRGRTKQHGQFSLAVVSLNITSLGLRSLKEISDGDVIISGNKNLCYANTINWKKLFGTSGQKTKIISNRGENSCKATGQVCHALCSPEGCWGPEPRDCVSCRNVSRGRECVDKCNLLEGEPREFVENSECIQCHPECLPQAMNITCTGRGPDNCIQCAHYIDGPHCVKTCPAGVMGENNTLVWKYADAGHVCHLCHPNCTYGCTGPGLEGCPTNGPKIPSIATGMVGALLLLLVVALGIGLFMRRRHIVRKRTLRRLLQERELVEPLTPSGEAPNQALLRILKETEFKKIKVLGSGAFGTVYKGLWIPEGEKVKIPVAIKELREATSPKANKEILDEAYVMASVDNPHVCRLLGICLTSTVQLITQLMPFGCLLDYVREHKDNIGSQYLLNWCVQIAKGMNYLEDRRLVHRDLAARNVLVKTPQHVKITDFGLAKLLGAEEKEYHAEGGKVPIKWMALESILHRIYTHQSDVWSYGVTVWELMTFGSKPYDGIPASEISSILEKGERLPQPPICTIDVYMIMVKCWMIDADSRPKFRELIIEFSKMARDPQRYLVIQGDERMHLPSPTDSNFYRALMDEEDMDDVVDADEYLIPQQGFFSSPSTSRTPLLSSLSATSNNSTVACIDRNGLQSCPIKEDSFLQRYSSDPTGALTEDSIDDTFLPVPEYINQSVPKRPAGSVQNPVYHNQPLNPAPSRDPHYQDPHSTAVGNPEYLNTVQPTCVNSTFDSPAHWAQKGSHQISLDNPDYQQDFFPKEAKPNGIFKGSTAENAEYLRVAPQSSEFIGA

For the compound `COc1cccc(/C=N/NC(=O)c2ccc(N3N=C(c4ccccc4)CC3c3ccc4ccccc4c3)cc2)c1` (stereo not shown) [Compound H1, (E)-N′-(3-Methoxybenzylidene)-4-(5-(naphthalen-2-yl)-3-phenyl-4,5-dihydro-1H-pyrazol-1-yl)benzo-hydrazide], the IC50 came to 14.5 µM in series [1]; 22.5 µM in series [2]; 8.47 µM in series [3] (setting [8]); 28.8 µM in series [4]; 21 µM in series [5] (setting [9]). Also, in series [6], the CC50 came to 98.6 µM.

With `COc1cccc(/C=N/NC(=O)c2ccc(N3N=C(c4ccccc4C)CC3c3ccc4ccccc4c3)cc2)c1` (stereo not shown) [Compound H2, (E)-N′-(3-Methoxybenzylidene)-4-(5-(naphthalen-2-yl)-3-(o-tolyl)-4,5-dihydro-1H-pyrazol-1-yl)benzo-hydrazide], the IC50 in series [1] amounted to 1.41 µM; in series [2], 0.6 µM; in series [3] (setting [8]) it was 0.65 µM; in series [4], 0.67 µM; in series [5] (setting [9]), 1.52 µM. The CC50 in series [6] worked out at 87.5 µM.

As for `COc1cccc(/C=N/NC(=O)c2ccc(N3N=C(c4cccc(C)c4)CC3c3ccc4ccccc4c3)cc2)c1` (stereo not shown) [Compound H3, (E)-N′-(3-Methoxybenzylidene)-4-(5-(naphthalen-2-yl)-3-(m-tolyl)-4,5-dihydro-1H-pyrazol-1-yl)benzo-hydrazide], the IC50 in series [1] was found to be 3.02 µM; in series [2], 2.45 µM; in series [3] (setting [8]) it was 2.12 µM; in series [4], 3.54 µM; in series [5] (setting [9]), 2.89 µM. In addition, the CC50 in series [6] came to 92.3 µM.

`COc1ccc(/C=N/NC(=O)c2ccc(N3N=C(c4ccccc4F)CC3c3ccc4ccccc4c3)cc2)cc1` (stereo not shown) [Compound H25, (E)-4-(3-(2-Fluorophenyl)-5-(naphthalen-2-yl)-4,5-dihydro-1H-pyrazol-1-yl)-N′-(4-methoxybenzylidene)-benzohydrazide] gave a melting point of 244 to 246 °C. In series [1] (Homo sapiens), the concentration for half-maximal inhibition (IC50) is 48.6 µM. In addition, in series [2] (Homo sapiens), the IC50 is 61.9 µM. For the same compound, the IC50 in series [3] was 15.3 µM. Also, the IC50 in series [4] (Homo sapiens) worked out at 71.1 µM. The IC50 in series [5] (setting [10]) was 65.5 µM. Also, the CC50 at 24 h in series [7] was found to be 85.6 µM.

As to `COc1ccc(/C=N/NC(=O)c2ccc(N3N=C(c4cccc(F)c4)CC3c3ccc4ccccc4c3)cc2)cc1` (stereo not shown) [Compound H26, (E)-4-(3-(3-Fluorophenyl)-5-(naphthalen-2-yl)-4,5-dihydro-1H-pyrazol-1-yl)-N′-(4-methoxybenzylidene)-benzohydrazide], the melting point was in the range of 240 to 242 °C. For the same compound, the half-inhibitory concentration (IC50) in series [1] (Homo sapiens) was determined as 56.4 µM. Also, the IC50 in series [2] (Homo sapiens) was 85.2 µM. For the same compound, half-maximal inhibition in series [3] (IC50) was put at 18.6 µM. Moreover, in series [4] (Homo sapiens), the IC50 came to 80.1 µM. Besides, the IC50 in series [5] (setting [10]) worked out at 77.5 µM. The compound further showed a CC50 at 24 h in series [7] of 94.3 µM.

For the compound `COc1ccc(/C=N/NC(=O)c2ccc(N3N=C(c4ccc(F)cc4)CC3c3ccc4ccccc4c3)cc2)cc1` (stereo not shown) [Compound H27, (E)-4-(3-(4-Fluorophenyl)-5-(naphthalen-2-yl)-4,5-dihydro-1H-pyrazol-1-yl)-N'-(4-methoxybenzylidene)-benzohydrazide], the melting point lay within 236 to 238 °C. Besides, in series [1] (Homo sapiens), the IC50 was found to be 44.1 µM. The IC50 in series [2] (Homo sapiens) turned out to be 54.2 µM. In series [3], this compound had an IC50 of 13.8 µM. In addition, in series [4] (Homo sapiens), the IC50 came out at 62.9 µM. For the same compound, the IC50 in series [5] (setting [10]) turned out to be 59 µM. The CC50 at 24 h in series [7] amounted to 89.4 µM.

`COc1ccc(/C=N/NC(=O)c2ccc(N3N=C(c4cc(F)cc(F)c4)CC3c3ccc4ccccc4c3)cc2)cc1` (stereo not shown) [Compound H28, (E)-4-(3-(3,5-Difluorophenyl)-5-(naphthalen-2-yl)-4,5-dihydro-1H-pyrazol-1-yl)-N′-(4-methoxy-benzylidene)benzohydrazide] returned a melting point of 238 to 240 °C. For the same compound, the IC50 in series [1] (Homo sapiens) is 39.4 µM. For the same compound, the IC50 in series [2] (Homo sapiens) amounted to 47.7 µM. Moreover, in series [3], the IC50 was 12.3 µM. Also, in series [4] (Homo sapiens), the IC50 is 48.1 µM. In series [5] (setting [10]), the IC50 was 56.1 µM. In series [7], this compound displayed a CC50 at 24 h of 82.2 µM.

As for `COc1ccc(/C=N/NC(=O)c2ccc(N3N=C(c4cccc(Cl)c4)CC3c3ccc4ccccc4c3)cc2)cc1` (stereo not shown) [Compound H29, (E)-4-(3-(3-Chlorophenyl)-5-(naphthalen-2-yl)-4,5-dihydro-1H-pyrazol-1-yl)-N′-(4-methoxybenzylidene)-benzohydrazide], the melting point is 241 to 243 °C. The 50% inhibitory concentration (IC50) in series [1] (Homo sapiens) stood at 33.2 µM. Moreover, the IC50 in series [2] (Homo sapiens) was 43 µM. This compound also registered an IC50 in series [3] of 11.2 µM. For the same compound, in series [4] (Homo sapiens), the IC50 worked out at 41 µM. Also, the IC50 in series [5] (setting [10]) amounted to 50.9 µM. In series [7], this compound returned a CC50 at 24 h of 94.4 µM.

As for `COc1ccc(/C=N/NC(=O)c2ccc(N3N=C(c4ccc(Cl)cc4)CC3c3ccc4ccccc4c3)cc2)cc1` (stereo not shown) [Compound H30, (E)-4-(3-(4-Chlorophenyl)-5-(naphthalen-2-yl)-4,5-dihydro-1H-pyrazol-1-yl)-N′-(4-methoxybenzylidene)-benzohydrazide], the melting point fell in the range of 237 to 239 °C. The IC50 in series [1] (Homo sapiens) stood at 28.6 µM. For the same compound, the half-inhibitory concentration (IC50) in series [2] (Homo sapiens) is 35.3 µM. Besides, the IC50 in series [3] came to 10 µM. Further, the IC50 in series [4] (Homo sapiens) was 38.2 µM. For the same compound, in series [5] (setting [10]), the IC50 turned out to be 40.4 µM. Besides, the CC50 at 24 h in series [7] came to 88.5 µM.

For the compound `COc1ccc(/C=N/NC(=O)c2ccc(N3N=C(c4ccc(Cl)c(Cl)c4)CC3c3ccc4ccccc4c3)cc2)cc1` (stereo not shown) [Compound H31, (E)-4-(3-(3,4-Dichlorophenyl)-5-(naphthalen-2-yl)-4,5-dihydro-1H-pyrazol-1-yl)-N'-(4-methoxy-benzylidene)benzohydrazide], the melting point is 243 to 245 °C. In addition, in series [1] (Homo sapiens), the IC50 is 24.8 µM. The half-inhibitory concentration (IC50) in series [2] (Homo sapiens) stood at 31.8 µM. This compound also gave an IC50 in series [3] of 9.66 µM. The IC50 in series [4] (Homo sapiens) was determined as 36.3 µM. Also, the IC50 in series [5] (setting [10]) was 34.4 µM. Further, in series [7], the CC50 at 24 h stood at 84.8 µM.

`COc1ccc(/C=N/NC(=O)c2ccc(N3N=C(c4ccc(Br)cc4)CC3c3ccc4ccccc4c3)cc2)cc1` (stereo not shown) [Compound H32, (E)-4-(3-(4-Bromophenyl)-5-(naphthalen-2-yl)-4,5-dihydro-1H-pyrazol-1-yl)-N′-(4-methoxybenzylidene)-benzohydrazide] gave a melting point of 238 to 240 °C. In series [1] (Homo sapiens), the IC50 was 19.7 µM. Moreover, the IC50 in series [2] (Homo sapiens) is 25.6 µM. The compound also returned an IC50 in series [3] of 8.64 µM. Also, the IC50 in series [4] (Homo sapiens) was determined as 32.9 µM. Also, the IC50 in series [5] (setting [10]) worked out at 30.2 µM. Besides, the CC50 at 24 h in series [7] was found to be 83.6 µM.

With “(E)-4-(3-(4-Ethylphenyl)-5-(naphthalen-2-yl)-4,5-dihydro-1H-pyrazol-1-yl)-N′-(3-methoxybenzylidene)-benzohydrazide [Compound H5]”, the IC50 in series [1] came out at 5.49 µM; in series [2], 8.71 µM; in series [4] it was 6.16 µM; in series [5] (setting [9]), 7.72 µM. In series [6], the CC50 is 92.5 µM.

As to “(E)-4-(3-(4-Ethylphenyl)-5-(naphthalen-2-yl)-4,5-dihydro-1H-pyrazol-1-yl)-N′-(4-methoxybenzylidene)-benzohydrazide [Compound H21]”, the IC50 is 4.54 µM in series [1], 7.93 µM in series [2], 5.06 µM in series [4] and 6.33 µM in series [5] (setting [9]). Further, in series [6], the CC50 turned out to be 82.6 µM.

With “(E)-N′-(3-Methoxybenzylidene)-4-(3-(4-methoxyphenyl)-5-(naphthalen-2-yl)-4,5-dihydro-1H-pyrazol-1-yl)-benzohydrazide [Compound H6]”, the half-inhibitory concentration (IC50) was found to be 8.32 µM in series [1], 13.2 µM in series [2], 11.5 µM in series [4] and 10.2 µM in series [5] (setting [9]). Also, the CC50 in series [6] worked out at 81.8 µM.

As for “(E)-N′-(4-Methoxybenzylidene)-4-(3-(4-methoxyphenyl)-5-(naphthalen-2-yl)-4,5-dihydro-1H-pyrazol-1-yl)-benzohydrazide [Compound H22]”, the IC50 in series [1] was determined as 7.12 µM; in series [2] it was 12.3 µM; in series [4] it was 10.5 µM; in series [5] (setting [9]), 9.69 µM. In addition, the CC50 in series [6] was 84.7 µM.
